In publication PMC7557402, “Evaluation of Nucleoside Analogs as Antimicrobials Targeting Unique Enzymes in Borrelia burgdorferi” (Pathogens, 2020):
Where “and” joins values, the source holds several entries; their conditions need not be identical. Equal values may be shown once. Read-outs that look alike come from different tables or passages of the source.

Assays:
B. burgdorferi N40 [1] = assay: Subculture without inhibitor after 7 days of treatment: bacteriostatic versus bactericidal; assay type: cell-based, Borrelia burgdorferi; settings: for Inhibitor Activity: 7 days of treatment, then subculture
Protocol: After 7 days of treatment, a 5 µL aliquot from each treatment tube (and untreated control) was added to 1 mL of BSKII-RS medium to allow any remaining viable spirochetes in the sample to grow. After incubation for 7–21 days at 33 °C, the survival of the spirochetes was determined using dark-field microscopy to observe motility and by employing bioluminescence measurements to assess vitality of the recovered culture.
To further differentiate between bacteriostatic versus bactericidal activities of MTAN inhibitors, we subcultured drug treated spirochetes in the absence of inhibitors to recover any live B. burgdorferi remaining after seven days of inhibitor treatment (summarized in Table 4). If non-motile spirochetes from treated cultures were able to grow back, the inhibitor was determined to have a bacteriostatic effect at the selected concentration. […] Spirochete survival was determined by both dark-field microscopy and bioluminescence measurements. Microscopic examination allowed assessment of motility of the spirochetes whereas bioluminescence assays assessed recovery and viability of B. burgdorferi cells. […] By comparison, a reduction in bioluminescence compared to the untreated control was observed after treatment with dEt-ImmA at a 0.4 µM or greater concentration. […] After seven days of treatment, live spirochetes were only recovered when concentrations of ≤0.4 µM were used for dEt-ImmA and IADO.

Bgp [2] = target: T1, Bgp (Borreliella burgdorferi, UniProt Q9F952); design: method as in Cornell et al., 2020 [18]; settings: reported previously, ref Cornell et al., 2020 [18], cited from earlier work
T1 sequence (Q9F952 entry or part of it): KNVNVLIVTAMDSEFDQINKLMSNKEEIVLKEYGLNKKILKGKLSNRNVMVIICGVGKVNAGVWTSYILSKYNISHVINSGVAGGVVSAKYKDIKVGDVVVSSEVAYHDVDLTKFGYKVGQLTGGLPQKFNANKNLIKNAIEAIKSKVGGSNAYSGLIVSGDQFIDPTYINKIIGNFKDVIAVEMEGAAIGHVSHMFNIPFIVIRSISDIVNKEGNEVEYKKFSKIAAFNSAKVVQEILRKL

MtnN [3] = target: T2, MtnN (Borreliella burgdorferi, UniProt O50860); design: method as in Cornell et al., 2020 [18]; settings: reported previously, ref Cornell et al., 2020 [18], cited from earlier work
T2 sequence (O50860 entry or part of it): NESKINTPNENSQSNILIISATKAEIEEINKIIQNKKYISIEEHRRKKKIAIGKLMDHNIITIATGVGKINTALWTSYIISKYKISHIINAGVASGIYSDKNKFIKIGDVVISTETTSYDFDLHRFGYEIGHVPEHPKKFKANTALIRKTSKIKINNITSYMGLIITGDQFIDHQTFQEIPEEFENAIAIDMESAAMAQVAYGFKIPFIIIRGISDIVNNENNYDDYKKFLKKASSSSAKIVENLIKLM

Pfs [4] = target: T3, Pfs (Borreliella burgdorferi, UniProt O50162); design: method as in Cornell et al., 2020 [18]; settings: reported previously, ref Cornell et al., 2020 [18], cited from earlier work
T3 sequence (O50162 entry or part of it): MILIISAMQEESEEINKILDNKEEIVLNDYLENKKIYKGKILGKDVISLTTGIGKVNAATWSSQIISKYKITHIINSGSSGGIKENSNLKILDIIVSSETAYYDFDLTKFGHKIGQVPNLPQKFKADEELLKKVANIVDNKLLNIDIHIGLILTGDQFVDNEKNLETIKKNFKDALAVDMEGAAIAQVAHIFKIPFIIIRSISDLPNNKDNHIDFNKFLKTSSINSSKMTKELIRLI

Bgp [5] = target: T1, Bgp; assay: MTAN spectrophotometric activity assay (specific activity, Km); assay type: biochemical, Borrelia burgdorferi; settings: for Specific Activity: pH 7, 1 U = 1 µmol MTA hydrolyzed per minute; for % Max Specific Activity: relative to MTA as a substrate
Protocol: (§1) Recombinant MTANs were expressed and purified as previously described. Briefly, overnight 10 mL cultures of recombinant E. coli BL21(DE3) pLysS cells containing engineered pET30a expression plasmids for Bgp, MtnN or Pfs were grown at 37 °C with shaking (150 rpm) in LB broth supplemented with 50 µg/mL kanamycin and 0.5% glucose. The culture was diluted 1:50 in fresh medium and incubated at 37 °C with shaking (150 rpm) until the absorbance (600 nm) reached 0.4–0.6. Protein expression was induced with the addition of isopropyl β-D-1-thiogalactopyranoside (IPTG) to a final concentration of 1 mM and continued overnight incubation with shaking at 30 °C. Cells were harvested by centrifugation (10,000× g/15 min), and the pellet was washed once with ice-cold lysis buffer (50 mM sodium phosphate, pH = 8.0, 300 mM NaCl, 10 mM imidazole, 2mM β mercaptoethanol). Harvested cell pellets were resuspended in 10 mL fresh lysis buffer and lysed by sonication on ice using a Misonix Sonicator 300 (power setting 7, pulse 30 s, 1 min cooling with total sonication for 2.5 min). The cell lysates were centrifuged at 10,000× g for 15 min at 4 °C to remove debris, and the lysate was further filtered through a […] syringe filter to obtain a clear extract. Recombinant N-terminal hexahistidine tagged proteins were purified from the lysate using HisPur™ affinity columns (Thermo Scientific) according to the manufacturer’s specifications, and specifically eluted with 250 mM imidazole containing buffer (pH = 7). Eluted materials were analyzed by SDS-PAGE and Coomassie blue staining and found to be >95% homogeneous. Enzyme concentrations were determined using UV scans on a Cary100 spectrophotometer (Agilent) to determine the absorbance at 280 nm and applying extinction coefficients (0.1%) of 0.594 (Bgp), 0.637 (MtnN), and 0.404 (Pfs). Enzyme stocks (1 mg/mL) were prepared in 20% glycerol and stored at −80 °C.
(§2) Enzyme specific activities were determined using previously reported optimal pH conditions (50 mM sodium phosphate, pH = 7, for Bgp, MtnN; 50 mM sodium phosphate-citrate, pH = 5, for Pfs) and a spectrophotometric activity assay that measures the decrease in UV absorbance at 275 nm that occurs when MTA is cleaved to 5-methylthioribose and adenine (ε275 = 1.6 mM^−1cm^−1). The extinction coefficients for cleavage of other nucleosides were experimentally validated and found to be the same for MSeA, FSBA, and IADO (ε275 = 1.6 mM^−1cm^−1). Due to the added UV absorbance imparted by the 5′ purine group found in PurTA, the enzyme reactions were followed spectrophotometrically at 260 nm using the experimentally determined extinction coefficient of ε260 = 5.6 mM^−1cm^−1. Enzyme specific activities for MTA were generally 1–2 U/mg (1 U = µmol MTA hydrolyzed/min). The enzyme specific activities for other nucleosides were determined and reported in U/mg and as the % max specific activity (relative to MTA at 100%).
(§3) Kinetic constants have been previously reported for MTA [18]. As MSeA was also an efficient substrate for the B. burgdorferi nucleosidases, kinetic constants were determined using the activity assay described above, varying the nucleoside concentrations from 1 to 20 µM, and fitting the data on substrate-velocity plots to the Michaelis–Menten equation using GraphPad Prism (version 6):(1) Vo=Vmax[S]/Km+[S]

MtnN [6] = target: T2, MtnN; assay: as above; assay type: biochemical, Borrelia burgdorferi; settings: for Specific Activity: pH 7, 1 U = 1 µmol MTA hydrolyzed per minute; for % Max Specific Activity: relative to MTA as a substrate
Protocol: as §1, §2, §3

Pfs [7] = target: T3, Pfs; assay: as above; assay type: biochemical, Borrelia burgdorferi; settings: for Specific Activity: pH 5, 1 U = 1 µmol MTA hydrolyzed per minute; for % Max Specific Activity: relative to MTA as a substrate
Protocol: as §1, §2, §3

Bgp [8] = target: T1, Bgp; design: method as in Cornell et al., 2020 [18]; settings: reported previously, ref Cornell et al., 2020 [18], read-out: Km (Michaelis constant); cited from earlier work
MtnN [9] = target: T2, MtnN; settings: reported previously, ref Cornell et al., 2020 [18], read-out: Km (Michaelis constant); cited from earlier work
Pfs [10] = target: T3, Pfs; settings: reported previously, ref Cornell et al., 2020 [18], read-out: Km (Michaelis constant); cited from earlier work
[11] = tested on: B. burgdorferi strain N40; assay: microbe, parasite or virus in culture; assay type: cell-based, Borrelia burgdorferi; settings: 24 h treatment; calculated from graphs
Protocol: B. burgdorferi N40 strain carrying a firefly luciferase gene (Bbluc), which is a derivative of the N40D10/E9 clone, was used in this study and is labeled as N40 throughout. N40 was cultured at 33 °C in Barbour-Stoenner-Kelly-II (BSK-II) medium supplemented with 6% rabbit serum (BSKII-RS). Bacterial counts were determined under 400× magnification using a hemocytometer and a dark field microscope.
The luciferase expressing B. burgdorferi N40 strain was grown to a density of ~10^8 spirochetes/mL and divided into two aliquots. One aliquot was incubated at 60 °C for 30 min to kill the spirochetes. […] The culture was mixed with the substrate by shaking in the dark, incubated at 37 °C for 5 min in a Spectramax M2 microplate reader (Molecular Devices, San Jose, CA, USA) and the bioluminescence measured. […]
Nucleosides and nucleoside analogs were prepared as sterile 1 mM stock solutions in distilled water (MSeA, IADO, FSBA, and dEt-ImmA) or in DMSO (PurTA). […] Photon emission due to luciferase activity was measured at three time points, after: (a) 24 h, (b) 72 h, and (c) 7 days of treatments to observe the effect of inhibitors on B. burgdorferi culture. At the end of each time point, bioluminescence was measured as described above. […]

B. burgdorferi N40 [12] = assay: Dark-field microscopy of treated cultures (motility); assay type: cell-based, Borrelia burgdorferi; settings: 24 h treatment
Protocol: The infectious N40 B. burgdorferi culture was treated with ten 2-fold serial dilutions of ampicillin overnight. Stocks of ampicillin at 200 µg/mL to 0.385 µg/mL concentrations were used to prepare different dilutions for treatment (final 10 to 0.0195 µg/well). The bioluminescence standard curve (Figure 3) was used to calculate the percentage of physiologically compromised B. burgdorferi after treatment with different ampicillin concentration for 24 h. Ampicillin treatment affected the viability of the spirochetes (Figure 4A). […] A prolonged incubation could increase killing by ampicillin at lower doses of drug. In addition to bioluminescence, the cultures were also observed under dark-field microscopy to examine viability.

[13] = tested on: Borrelia MTANs (Bgp, MtnN, Pfs); assay: MTAN activity/kinetics, across the nucleosidases; assay type: biochemical
Protocol: as §2, §3
For the other compounds, inhibition constants (Ki’s) were determined as previously described, using an MTA concentration of 100 µM and varying the inhibitor concentration from 0 to 100 µM. The inhibited velocity (Vo’) and uninhibited velocity (Vo) values were determined, and the ratio of Vo’/Vo plotted as a function of inhibitor concentration. Ki values were calculated from these plots by fitting the data to the equation for competitive inhibition using GraphPad Prism:(2) Vo^′/Vo=Km+[S]/Km+[S]+(Km[I]/Ki)

E. coli MTAN = tested on: E. coli MTAN; design: method as in PMID 8941345; settings: radioactive enzyme assay; cited from earlier work
[14] = read-out: Ki (inhibition constant)
[15] = nucleoside 1 to 20 µM, read-out: Km (Michaelis constant)

Molecule: CCC[C@H]1N[C@@H](c2c[nH]c3c(N)ncnc23)[C@H](O)[C@@H]1O [dEt-ImmA, 5′-deoxy-5′-ethyl-immucillin A]
- recovery of live spirochetes (B. burgdorferi N40 [1]; 2 µM and 10 µM, 21 days of subculture in media lacking MTAN inhibitors): no live spirochetes were recovered
- Inhibitor Activity (B. burgdorferi N40 [1]; Dose: 2 µM, 10 µM): Bactericidal
- concentration giving a reduction in bioluminescence compared to the untreated control (B. burgdorferi N40 [1]; after 12 days of incubation of subcultured bacteria): ≥ 0.4 µM
- concentrations at which live spirochetes were recovered (B. burgdorferi N40 [1]; after seven days of treatment): ≤ 0.4 µM
- concentrations that exert bactericidal activity (B. burgdorferi N40 [1]; after seven days of treatment, bacteriostatic at lower concentrations): ≥ 1 µM
- Ki (Bgp [2]; [14]): 2.48 nM
- Ki’ (delayed onset inhibition constant) (Bgp [2]): 0.35 ± 0.02 nM
- Ki (MtnN [3]; [14]): 1.48 nM
- Ki’ (delayed onset inhibition constant) (MtnN [3]): 0.58 ± 0.05 nM
- Ki (Pfs [4]; [14]): 10.5 nM
- Ki’ (delayed onset inhibition constant) (Pfs [4]): 0.53 ± 0.15 nM

Molecule: 5′-deoxy-5′-methylthioadenosine [MTA, reference compound]
- Specific Activity (Bgp [5]): 1.00 U/mg
- % Max Specific Activity (Bgp [5]): 100%
- Specific Activity (MtnN [6]): 1.00 U/mg
- % Max Specific Activity (MtnN [6]): 100%
- Specific Activity (Pfs [7]): 1.70 U/mg
- % Max Specific Activity (Pfs [7]): 100%
- Km (Bgp [8]): 0.49 µM
- Km (MtnN [9]): 9.09 µM
- Km (Pfs [10]): 0.61 µM

Molecule: CC1(C)S[C@@H]2[C@H](NC(=O)[C@H](N)c3ccccc3)C(=O)N2[C@H]1C(=O)O [ampicillin, reference compound]
- IC50 (percent of physiologically compromised B. burgdorferi) [11]: ~ 0.31 µg/µL of culture
- concentration at which majority of the spirochetes were non-motile with stripping of the outer membrane (B. burgdorferi N40 [12]): ≥ 0.625 µg/well

Molecule: 5′-deoxy-5′-methylselenoadenosine [MSeA]
- Km (Bgp [5]; [15]): 1.62 µM
- Specific Activity (Bgp [5]): 1.79 U/mg
- % Max Specific Activity (Bgp [5]): 179%
- Km (MtnN [6]; [15]): 1.5 µM
- Specific Activity (MtnN [6]): 1.50 U/mg
- % Max Specific Activity (MtnN [6]): 150%
- Km (Pfs [7]; [15]): 2.12 µM
- Specific Activity (Pfs [7]): 0.27 U/mg
- % Max Specific Activity (Pfs [7]): 16%
- specific activities higher than MTA ([13]; Bgp and MtnN): 50–79%
- Km ([13]; range over all three nucleosidases): 1.5 to 2.1 µM and 1.5 to 2 µM
- Inhibitor Activity (B. burgdorferi N40 [1]; Dose: All doses (0.0032–10 µM)): Bacteriostatic
- recovery of spirochetes (bioluminescence comparable with untreated controls) (B. burgdorferi N40 [1]; all concentrations, 12 days of incubation of subcultured bacteria): fully recovered
- IC50 (E. coli MTAN): ~4000 nM
